Some test systems named below: ACHN renal; CAKI-1 renal; LOX IMVI melanoma; MCF7 breast; NCI-H522 lung; SK-MEL-2 melanoma; SK-OV-3 ovarian; SNB-19 CNS; SNB-75 CNS; NCI-H226 lung.
Common to all, as to assay: inhibition of tumour cell growth, NCI panel, 48 h

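All cell lines were grown in 96-well plates and treated with compound for 48 hours. Definition used: TGI = concentration required for complete inhibition of growth.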

In the case of `O=C1CCC[C@]2(CCC[C@@H](O)C2)N1`, the TGI in the assay with ACHN renal, with CAKI-1 renal, in the assay with LOX IMVI melanoma, in the assay with MCF7 breast, in the assay on NCI-H522 lung and with SK-MEL-2 melanoma was greater than 100 µM each time. Also, the TGI in the assay on SK-OV-3 ovarian, in the assay on SNB-19 CNS and with SNB-75 CNS was greater than 100 µM in each case.

Turning to `Cc1ccc(S(=O)(=O)NN=C2CCCCCCCCCCC2)cc1`, the TGI in the assay on ACHN renal, in the assay on CAKI-1 renal, with LOX IMVI melanoma, in the assay on MCF7 breast, with NCI-H226 lung and with NCI-H522 lung was greater than 100 µM each time. The TGI in the assay on SK-MEL-2 melanoma, in the assay with SK-OV-3 ovarian and in the assay on SNB-19 CNS was greater than 100 µM each time.

For `CC(C)(C)c1ccc(-c2nc3ccc([N+](=O)[O-])cc3c(=O)o2)cc1`, the TGI was 90.5 µM with ACHN renal; greater than 100 µM with CAKI-1 renal; 29.9 µM in the assay on LOX IMVI melanoma; 89.2 µM with MCF7 breast; 40.7 µM with NCI-H522 lung; 47 µM in the assay on SK-MEL-2 melanoma. The TGI in the assay with SK-OV-3 ovarian was 95.7 µM; in the assay on SNB-19 CNS it was greater than 100 µM; in the assay on SNB-75 CNS, 66.1 µM.

For the compound `CN(NC(=O)CCCl)C1=NCCN1`, the TGI in the assay with ACHN renal, with LOX IMVI melanoma, in the assay on MCF7 breast, in the assay with NCI-H226 lung, with NCI-H522 lung and in the assay with SK-MEL-2 melanoma was greater than 100 µM each time. In addition, the TGI with SK-OV-3 ovarian, with SNB-19 CNS and in the assay on SNB-75 CNS was greater than 100 µM throughout.

In the case of `CN(C)c1ccc(/C=C(\C#N)C(N)=C(C#N)C#N)cc1`, the TGI in the assay on ACHN renal, in the assay on CAKI-1 renal, in the assay with LOX IMVI melanoma, with MCF7 breast, with NCI-H226 lung and in the assay with NCI-H522 lung was greater than 100 µM each time. Besides, the TGI with SK-OV-3 ovarian and with SNB-19 CNS was greater than 100 µM throughout.

Regarding `CCCc1c(OC)c(=O)c2c(OC)cc(OC)c3c4c(OC)cc(OC)c5c(=O)c(OC)c(CCC)c(c1c23)c54`, the TGI came out at 29.3 µM with ACHN renal; 27.7 µM with CAKI-1 renal; 23.1 µM in the assay on LOX IMVI melanoma; 46.6 µM in the assay with MCF7 breast; 38.9 µM in the assay on NCI-H226 lung; 49.8 µM in the assay on SK-MEL-2 melanoma. Further, the TGI in the assay on SK-OV-3 ovarian turned out to be 30.4 µM; in the assay on SNB-19 CNS it was 34.6 µM; with SNB-75 CNS, 36 µM.

Take `N#CCCN(CCC#N)c1ccc(C(N=Nc2ccccc2)=Nc2ccccc2)cc1`: the TGI with ACHN renal, in the assay with CAKI-1 renal, in the assay with MCF7 breast, in the assay with NCI-H226 lung, with NCI-H522 lung and in the assay on SK-MEL-2 melanoma was greater than 100 µM throughout. Further, the TGI with SK-OV-3 ovarian, in the assay on SNB-19 CNS and with SNB-75 CNS was greater than 100 µM throughout.

On to `CC1(C)CC[C@]2(C)CC=C3[C@]4(C)CC[C@H]5C(C)(C)C(=O)CC[C@]5(C)[C@H]4CC[C@@]3(C)[C@H]2C1`, for which the TGI in the assay with ACHN renal, in the assay with CAKI-1 renal, with LOX IMVI melanoma, in the assay with MCF7 breast, in the assay on NCI-H226 lung and in the assay with NCI-H522 lung was greater than 100 µM throughout. Moreover, the TGI with SK-MEL-2 melanoma, in the assay with SK-OV-3 ovarian and with SNB-19 CNS was greater than 100 µM in each case.

For the compound `CC(OC(=O)NCn1cc(-c2ccccc2)nn1)c1ccccc1` (stereo not drawn), the TGI was greater than 100 µM in the assay on ACHN renal; greater than 100 µM in the assay with CAKI-1 renal; greater than 100 µM in the assay with LOX IMVI melanoma; greater than 100 µM in the assay with MCF7 breast; 56.4 µM in the assay with NCI-H226 lung; greater than 100 µM in the assay with NCI-H522 lung. Moreover, the TGI with SK-MEL-2 melanoma and in the assay with SNB-19 CNS was greater than 100 µM each time.

On to `O=P(Oc1ccccc1)(Oc1ccccc1)Oc1c[nH]c2ccccc12`, for which the TGI was 23.4 µM in the assay on CAKI-1 renal; 49.9 µM with LOX IMVI melanoma; 25.3 µM in the assay on MCF7 breast; 31.3 µM with NCI-H226 lung; 20.2 µM in the assay on SK-MEL-2 melanoma; 18.3 µM in the assay on SK-OV-3 ovarian. In addition, the results for the TGI in the assay on SNB-19 CNS and with SNB-75 CNS were 27.7 µM and 23.9 µM, respectively.

`C[C@H](Nc1c(O)c2c(c(O)c1Cl)C(=O)C=CC2=O)C(=O)Nc1ccc([N+](=O)[O-])cc1`: the TGI in the assay on ACHN renal is 9.31 µM; with CAKI-1 renal it was greater than 10 µM; in the assay on MCF7 breast, 3.42 µM; with NCI-H226 lung it was 6.84 µM; in the assay with NCI-H522 lung it was 6.65 µM; in the assay with SK-MEL-2 melanoma, 9.1 µM. Further, the TGI in the assay with SK-OV-3 ovarian was greater than 10 µM; with SNB-19 CNS it was 9.59 µM; in the assay on SNB-75 CNS it was greater than 10 µM.

As for `O=C1NC(Cc2c[nH]c3ccccc23)C(=O)N2C(C3CCCCC3)c3[nH]c4ccccc4c3C[C@@H]12` (stereo partly drawn), the TGI with ACHN renal was 77.4 µM; with CAKI-1 renal it was 55.8 µM; in the assay on LOX IMVI melanoma, 28.1 µM; in the assay on MCF7 breast, greater than 100 µM; in the assay with NCI-H226 lung it was 65.7 µM; in the assay with NCI-H522 lung it was 28.6 µM. Further, the results for the TGI in the assay with SK-MEL-2 melanoma and with SNB-19 CNS were 32.2 µM and greater than 100 µM, respectively.

For `CC(=O)C(=[N+]=[N-])C(=O)OC(C)(C)C#N`, the TGI in the assay on ACHN renal, in the assay with CAKI-1 renal, with LOX IMVI melanoma, in the assay on MCF7 breast, in the assay with NCI-H226 lung and with SK-MEL-2 melanoma was greater than 10 µM each time. For the same compound, the TGI in the assay on SK-OV-3 ovarian was greater than 10 µM; with SNB-19 CNS, greater than 10 µM; in the assay on SNB-75 CNS, 8.12 µM.

Consider `Cc1cccc2c1Oc1cc(Cl)ccc1C2NC(=O)CCN1CCN(CCO)CC1` (stereo not drawn), for which the TGI with LOX IMVI melanoma was 9.7 µM; in the assay with MCF7 breast, 30.3 µM; in the assay with NCI-H522 lung it was 23.2 µM; with SK-OV-3 ovarian, greater than 100 µM; in the assay on SNB-19 CNS it was 72 µM; in the assay with SNB-75 CNS, 25.1 µM.

As for `CC1CC[C@@]2(OC1)OC1C[C@H]3[C@@H]4C/C(=N\N(C)C)[C@@]5(O)CC(O)CC[C@]5(C)[C@H]4CC[C@]3(C)C1[C@@H]2C` (stereo partly drawn), the TGI in the assay with ACHN renal, with LOX IMVI melanoma, in the assay with MCF7 breast, in the assay on NCI-H226 lung, in the assay with SK-MEL-2 melanoma and in the assay with SK-OV-3 ovarian was greater than 100 µM each time. In the assay on SNB-19 CNS, this compound returned a TGI greater than 100 µM.

In the case of `COc1cc(C2c3cc4c(cc3OC(Nc3ccc(C(=O)O)cc3)C2C)OCO4)cc(OC)c1OC` (stereo not drawn), the TGI in the assay with ACHN renal was greater than 68.6 µM; in the assay with CAKI-1 renal, 0.761 µM; in the assay on LOX IMVI melanoma, greater than 100 µM; with MCF7 breast it was 40 µM; with NCI-H522 lung, 6.02 µM; with SK-MEL-2 melanoma, greater than 59.9 µM. In addition, the TGI in the assay on SNB-19 CNS is greater than 93.4 µM; with SNB-75 CNS, 3.53 µM.

On to `Cc1c(CCOC=O)c(=O)[nH]c2nncn12`, for which the TGI in the assay with ACHN renal, in the assay with LOX IMVI melanoma, with MCF7 breast, with NCI-H226 lung, with NCI-H522 lung and in the assay on SK-OV-3 ovarian was greater than 100 µM in each case. The TGI in the assay on SNB-19 CNS and with SNB-75 CNS was greater than 100 µM in each case.

Take `Cc1cn(C2CCC(/C=N\O)O2)c(=O)[nH]c1=O` (stereo not drawn): the TGI in the assay with ACHN renal, in the assay on CAKI-1 renal, in the assay with LOX IMVI melanoma, in the assay with MCF7 breast, with NCI-H226 lung and in the assay with SK-MEL-2 melanoma was greater than 100 µM each time. Further, the TGI in the assay on SNB-19 CNS and in the assay with SNB-75 CNS was greater than 100 µM each time.

Take `CC1OC(OC2C(O[C@H]3CC[C@@]4(C)[C@@H](CC[C@@H]5[C@@H]4CC[C@]4(C)[C@@H]6[C@H](C[C@@H]54)O[C@]4(CC[C@@H](C)CO4)[C@H]6C)C3)OC(CO)C(OC3OC(CO)C(O)C(OC4OCC(O)C(O)C4O)C3OC3OCC(O)C(O)C3O)C2O)C(O)C(O)C1O` (stereo partly drawn): the TGI in the assay with ACHN renal was 2.2 µM; with CAKI-1 renal it was 2.53 µM; in the assay on LOX IMVI melanoma it was 2.91 µM; in the assay on MCF7 breast it was 0.914 µM; with NCI-H226 lung, 3.58 µM; in the assay with SK-MEL-2 melanoma, 2.27 µM. The TGI turned out to be 3.44 µM with SK-OV-3 ovarian, 2.33 µM in the assay on SNB-19 CNS and 2.86 µM in the assay with SNB-75 CNS.

As for `O=C1CN2Cc3cc(N4CCOCC4)ccc3N=C2N1`, the TGI in the assay on CAKI-1 renal, in the assay with LOX IMVI melanoma, with MCF7 breast, in the assay on NCI-H226 lung, with SK-MEL-2 melanoma and in the assay on SK-OV-3 ovarian was greater than 100 µM in each case. Further, the TGI in the assay on SNB-19 CNS and in the assay with SNB-75 CNS was greater than 100 µM each time.

Consider `COc1ccc(C2C3C(=O)C=CC(=O)C3[C@@H]2C)cc1OC` (stereo partly drawn), for which the TGI is greater than 100 µM in the assay with ACHN renal; greater than 100 µM in the assay with CAKI-1 renal; greater than 100 µM in the assay with LOX IMVI melanoma; greater than 100 µM in the assay with NCI-H226 lung; 33.4 µM with NCI-H522 lung; greater than 100 µM in the assay with SK-MEL-2 melanoma. Further, the TGI in the assay on SK-OV-3 ovarian, with SNB-19 CNS and with SNB-75 CNS was greater than 100 µM throughout.

Consider `O=C(/C=C/c1ccc(Cl)cc1)Oc1ccc(/C=C2\CCCCC2=O)cc1`, for which the TGI in the assay on ACHN renal, in the assay with CAKI-1 renal, in the assay on LOX IMVI melanoma, with MCF7 breast, in the assay on NCI-H522 lung and in the assay with SK-MEL-2 melanoma was greater than 100 µM throughout. The same compound showed a TGI in the assay on SNB-75 CNS greater than 100 µM.

Values taken from PubChem BioAssay (NCI).
